This is an account of results in publication PMC11355195 (Life, 2024).

Each structure is given as a SMILES string. In brackets after ≈: the same amount, converted by molar mass. Where two headings read alike, the source gives them in different places.

One experiment addresses T1, COX-2 (Ovis aries, UniProt P79208).
T1 construct: purchased Cayman Chemical Company, Ann Arbor, MI, USA; host or cells: sheep placenta (tissue)
T1 sequence (P79208 17-603): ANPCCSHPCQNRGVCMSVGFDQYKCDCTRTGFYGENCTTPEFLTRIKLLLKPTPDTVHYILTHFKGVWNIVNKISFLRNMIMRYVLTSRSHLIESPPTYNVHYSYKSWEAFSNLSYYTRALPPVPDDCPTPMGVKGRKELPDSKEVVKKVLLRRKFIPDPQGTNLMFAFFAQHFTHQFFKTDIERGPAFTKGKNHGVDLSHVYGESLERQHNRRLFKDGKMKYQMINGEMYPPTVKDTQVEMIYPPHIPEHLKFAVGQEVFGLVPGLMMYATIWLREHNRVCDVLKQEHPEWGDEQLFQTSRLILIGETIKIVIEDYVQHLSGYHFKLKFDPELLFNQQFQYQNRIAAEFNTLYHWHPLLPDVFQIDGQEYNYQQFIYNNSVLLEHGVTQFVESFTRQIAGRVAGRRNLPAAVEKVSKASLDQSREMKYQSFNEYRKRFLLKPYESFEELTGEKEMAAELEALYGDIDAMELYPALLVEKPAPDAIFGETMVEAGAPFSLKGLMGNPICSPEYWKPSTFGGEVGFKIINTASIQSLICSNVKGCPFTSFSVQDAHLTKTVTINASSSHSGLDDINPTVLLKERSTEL
Description: COX-2-catalyzed prostaglandin production inhibition. It counts as biochemical, sheep. Conditions: mean ± standard deviation, three replicas. As for the experimental part:
The COX inhibitory effects of the substances were examined using a COX-1/COX-2-catalyzed prostaglandin production test, using a modified approach by Futaki et al.. The chemicals were dissolved in 4% DMSO to a final concentration of 100 µg/mL.
In this test, one unit of COX-1 or COX-2 enzyme was suspended in a 0.1 M Tris-HCl buffer (pH 7.5) containing hematin ([…]) and phenol (2 mM) as cofactors. The COX-1 enzyme was produced from ram seminal vesicles, while COX-2 was taken from sheep placenta with a purity of 70% (both from Cayman Chemical Company, Ann Arbor, MI, USA). The reaction mixture was preincubated with either the solvent vehicle (4% DMSO) or the test solution for 2 min at 37 °C. […] Arachidonic acid, tagged with radioactive carbon ([1–14C]), serves as a substrate for the COX enzymes. The mixture was then incubated for an additional 2 min at 37 °C. […] The organic solvent phase was removed, and the PGE2 level in the remaining aqueous phase was quantified using a radioimmunoassay with a liquid scintillation counter, which measures the radioactivity (disintegrations per minute, DPM) of the [1–14C]-labeled PGE2. The percentage inhibition of COX-catalyzed prostaglandin production by the test compounds was estimated by comparing the radioactivity of the samples with the solvent vehicle controls. […]

In a further experiment the test system is MCF-7. As to the kind of experiment: MTT cell viability, MCF-7. Format: cell-based, Human. To be noted: Homo sapiens, MCF7; MTT test; 72 h of treatment (Figure 3); read-out: IC50 Value ± SD, MCF-7. As for the experimental part:
(§1) These cell lines were selected to represent distinct sub-types of breast cancer for extensive investigation. […] The medium was added with 10% heat-inactivated fetal calf serum (FCS) to supply vital growth hormones and nutrients necessary for cell proliferation. Additionally, 1% penicillin streptomycin was administered to avoid bacterial contamination, ensuring the sterility and integrity of the cell cultures. The cell cultures were maintained at 37 °C in a humidified environment containing 5% CO2. This controlled environment mimics physiological conditions in the human body, supporting optimal cell development and function. The humidified atmosphere prevents medium evaporation, while the 5% CO2 concentration maintains optimal pH values in the culture medium. These specialized circumstances and methods ensure that the breast cancer cell lines remain healthy and viable for experimental procedures, delivering dependable and reproducible results for research projects. The standard protocols followed for cultivating these cells are crucial for generating consistent and reliable data. Using well-characterized cell lines from a credible source like ATCC ensures the re-liability and comparability of the experimental outcomes.
(§2) This approach determines cell viability based on the ability of living cells to decrease MTT to a purple, water-insoluble formazan product. Cells were planted in 96-well plates at a density of 1 × 10^4 cells per well in 100 μL of complete culture media, which provides all necessary nutrients for cell growth. […] The cells were then treated with the compounds for 24, 48, and 72 h to determine the effect on cell viability over varied time intervals. Following each incubation time, 20 μL of MTT solution (at a concentration of 5 mg/mL in PBS) were applied to each well. The plates were further incubated for 4 h at 37 °C, during which time live cells decrease the MTT to formazan, creating purple crystals. At the end of the incubation, the medium containing the MTT was carefully aspirated, leaving only the formazan crystals in the bottom of the wells. […]
Background: Tetrazolium assays rely on reduction of a dye to a coloured formazan, in cell work by metabolically active cells.

For the next experiment, the system named is MDA-MB-231. Description: MTT cell viability, MDA-MB-231. It counts as cell-based, Human. Conditions: Homo sapiens, MDA-MB-231; MTT test; 72 h of treatment (Figure 3); read-out: IC50 Value ± SD, MDA-MB-231. As for the experimental part: as §1, §2
The test system of another experiment is MDA-MB-436. Description: MTT cell viability, MDA-MB-436. It counts as cell-based, Human. Conditions: Homo sapiens, MDA-MB-436; MTT test; 72 h of treatment (Figure 3); read-out: IC50 Value ± SD, MDA-MB-436. As to the method: as §1, §2
In the next experiment the test system is MCF-7 cells. To be noted: ref Seresht et al. (2019) [79], cited from earlier work.

Consider `Cc1ccc(C(C)C)c(O)c1` [Thymol, 2-isopropyl-5-methylphenol], for which the 50% inhibitory concentration (IC50) on COX-2 is 177 µM; with MCF-7, 5.16 ± 0.71 µg/mL (≈ 34.3 µM); in the experiment on MDA-MB-231, 8.22 ± 0.94 µg/mL (≈ 54.7 µM); with MDA-MB-436, 15.8 ± 1.69 µg/mL (≈ 105 µM). For the same compound, the “IC50 on MCF-7 cells” value with MCF-7 cells (48 h) is 54 µg/mL (≈ 359 µM); in the experiment on MCF-7 cells (72 h), 62 µg/mL (≈ 413 µM).

What is called IC50 is the point on the concentration scale where inhibition reaches its midpoint.
